Data on twelve molecules can be found in PubChem BioAssay (NCI).

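A five-concentration, 48-hour dose response in 96-well plates underlies each endpoint, interpolated linearly between surrounding concentrations. GI50 is the concentration that inhibits growth by half. TGI is the concentration that stops growth completely.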

Common to all, as to experiment: growth of human tumour cells (NCI), 48 h
For test [1], the system named is HCC-2998 colon.
Test [2] has as its system NCI-H460 lung.
The subject of test [3] is NCI-H522 lung.
Test [4] relates to OVCAR-5 ovarian.
Test [5] concerns RXF 393 renal.
Test [6] relates to SK-MEL-2 melanoma.
Test [7] concerns SW-620 colon.
In test [8] the test system is DU-145 prostate.
The subject of test [9] is MOLT-4 leukemia.

With `CCOC(=O)C1=C(NC)OCC1=O`, the TGI in test [1], in test [2], in test [3], in test [4], in test [5] and in test [6] was over 100 µM throughout. The TGI in [7] was over 100 µM.

Turning to `CCc1ccc(Nc2cc(C)c3ccc(O)cc3n2)cc1`, the GI50 in test [8] was 12.1 µM; in [1] it was 5.18 µM; in test [9], 3.6 µM; in test [2] it was 4.92 µM; in [4] it was 8.49 µM; in test [5], 4.08 µM. The GI50 was 9.97 µM in test [6] and 5.48 µM in test [7]. Moreover, the TGI in [8] was 28.1 µM; in test [1] it was 17.4 µM; in test [9], 19 µM; in test [2], 22 µM; in [4] it was 21.3 µM; in [5], 17.1 µM. The TGI in test [6] worked out at 23.6 µM; in test [7], 20.2 µM.

As to `COC(=O)C1=C(C(=O)OC)C2(c3ccccc3)OC1(c1ccccc1)c1cc3ccccc3cc12`, the TGI in test [1] is 3.7 µM; in test [9], 3.64 µM; in test [2] it was 11.9 µM; in test [4] it was 3.53 µM; in [5], 2.57 µM; in test [6], 3.13 µM. Also, in [7], the TGI is 3.51 µM.

For `COc1ccc(Nc2cnc3cc(N)cc(N)c3n2)cc1`, the GI50 in test [8] is 30.4 µM; in [9], 12.5 µM; in test [2] it was 21.9 µM; in test [3] it was 16.6 µM; in test [5], 17.6 µM; in test [6] it was 14.4 µM. The GI50 in test [7] was 21.8 µM. Also, the TGI in test [8] is over 100 µM; in test [9] it was over 100 µM; in test [2] it was 53.5 µM; in test [3], 43.6 µM; in test [5] it was 39.6 µM; in [6], 32 µM. In test [7], this molecule returned a TGI of 52.8 µM.

For `COc1cc(/C=C/c2cc(/C=C/c3ccc(O)c(OC)c3)n(C(=O)c3ccccc3Br)n2)ccc1O`, the GI50 was 3.29 µM in [8]; 2.48 µM in [1]; 1.23 µM in test [9]; 2.99 µM in test [2]; 1.38 µM in [3]; 2.37 µM in [6]. For the same molecule, the GI50 in test [7] is 3.66 µM. For the same molecule, the TGI is 34.8 µM in test [8]; 6.37 µM in test [1]; over 100 µM in test [9]; over 100 µM in test [2]; 6.32 µM in [3]; 5.92 µM in test [6]. This molecule had a TGI in [7] of over 100 µM.

Take `O=C1NC(=O)C2C(=O)NC(=O)C1C2Cc1ccco1` (stereo not given): the TGI in test [1], in test [9], in test [2], in [3], in test [4] and in test [5] was over 100 µM in each case. Further, the TGI in [6] and in test [7] was over 100 µM each time.

Take `COc1ccc2nc(NC(=O)C(=O)CC(=O)c3ccc([N+](=O)[O-])cc3)sc2c1`: the TGI in test [1], in test [9], in [2], in test [3], in test [4] and in test [6] was over 100 µM each time. This molecule also came in with a TGI in test [7] of over 100 µM.

As for `CC(=O)Nc1ccc(C2CC(c3ccc([N+](=O)[O-])cc3)=Nc3ccccc3S2=O)cc1` (stereo not given), the TGI in [1] was 30.5 µM; in test [9], 32.8 µM; in test [2], 47.9 µM; in test [3], 34.7 µM; in test [4], over 100 µM; in [5], 32.3 µM. Besides, the TGI in test [6] was over 100 µM; in [7] it was 62.4 µM.

Consider `COc1ccccc1Oc1nccc(-c2c(-c3ccc(F)cc3)ncn2C2CCNCC2)n1`, for which the GI50 in test [8] is over 25 µM; in test [1], 11.8 µM; in [9], over 16.3 µM; in [2] it was over 25 µM; in [3], over 25 µM; in test [4], over 25 µM. Also, the GI50 in [5] was 8.67 µM; in test [6], over 25 µM; in [7], over 25 µM. The TGI in test [8], in [1], in test [9], in [2], in test [3] and in test [4] was over 25 µM in each case. Moreover, the TGI in [5], in test [6] and in [7] was over 25 µM each time.

`CN1CCN(c2c(F)cc(NC3=C(Cl)C(=O)c4ncccc4C3=O)cc2F)CC1`: the GI50 in test [8] was 12.7 µM; in [1], 11.5 µM; in [9], 1.79 µM; in test [2] it was 18.1 µM; in test [3], 1.43 µM; in [4], 14.8 µM. In addition, the GI50 in test [5] was 1.67 µM; in test [6] it was 13.7 µM; in [7], 1.76 µM. For the same molecule, the TGI in test [8] came to 26.2 µM; in [1] it was 26.1 µM; in test [9], 6.71 µM; in [2], 36 µM; in test [3] it was 3.82 µM; in [4], 28 µM. For the same molecule, the TGI in test [5] is 3.31 µM; in test [6], 28 µM; in test [7], 3.82 µM.

For the molecule `Cc1ccc(S(=O)(=O)NCCCCC(N)C(=O)O)cc1` (stereo not given), the TGI in [8], in test [9], in test [2], in test [3], in test [4] and in test [5] was over 100 µM throughout. In [7], the TGI was over 100 µM.

Turning to `C[C@H](C(=O)O)C(=O)NC(=O)N(Cc1ccccc1)N=O`, the TGI in test [1], in test [9], in test [2], in test [4], in test [6] and in [7] was over 100 µM throughout.
